The text below walks through data of article PMC4820706, “Discovery of a small-molecule binder of the oncoprotein gankyrin that modulates gankyrin activity in the cell” (Scientific Reports, 2016).

Molecules are shown by their SMILES.

The target in test [1] is T1, gankyrin (Homo sapiens, UniProt O75832).
T1 construct: gene PSMD10; His-tagged full-length human gankyrin
T1 sequence (O75832 1-226): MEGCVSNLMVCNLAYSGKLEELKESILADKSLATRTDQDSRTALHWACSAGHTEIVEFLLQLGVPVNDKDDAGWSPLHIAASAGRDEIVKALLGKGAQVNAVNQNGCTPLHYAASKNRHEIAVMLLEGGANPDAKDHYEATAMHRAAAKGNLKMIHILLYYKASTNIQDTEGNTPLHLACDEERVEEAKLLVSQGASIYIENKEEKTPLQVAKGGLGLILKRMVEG
Nature of the test: ITC. Format: binding.

For test [2], the target named is T1, gankyrin. As to the kind of experiment: ITC (Kd […], stoichiometry […]); also label-free MST (Kd […]), thermal shift, 1H-15N HSQC NMR. Type of test: binding.

Regarding `COC(=O)c1ccc(-n2cc(CNS(=O)(=O)c3ccc4ccccc4c3)nn2)cc1` [compound 12], the Kd at gankyrin [1] was ~56 µM.
For `COC(=O)c1ccc(-n2cc(CCCOS(=O)(=O)c3ccc(C)cc3)nn2)cc1` [cjoc42], on gankyrin [2], the Kd stood at 0.58 ± 0.07 µM.
With `CCCNC(=O)c1ccc(-n2cc(CCCNS(=O)(=O)c3ccc(C)cc3)nn2)cc1` [compound 8], on gankyrin [1], the Kd is ~10 µM.

Usually Kd stands for the free concentration of one partner at which half of the binding sites on the other are occupied at equilibrium, for simple one-to-one binding.
